Assays:
[1] = test system: A549-ACE2 infected with SARS-CoV-2; experiment: SARS-CoV-2 infection rate relative to DMSO; higher = more infection; conditions: 24 h
[2] = test system: A549-ACE2; experiment: phospholipidosis EC50; higher = less potent phospholipidosis inducer
[3] = test system: Caco-2; experiment: relative viability EC50 (midpoint between 100% and the lowest measured viability); higher = less toxic; conditions: 72 h
[4] = test system: U2OS; experiment: as above; conditions: 72 h
[5] = test system: Vero E6; experiment: as above; conditions: 72 h
[6] = test system: Calu-3; experiment: as above; conditions: 72 h
[7] = test system: Caco-2; experiment: cell viability relative to DMSO; higher = less toxic; conditions: 72 h
[8] = test system: U2OS; experiment: as above; conditions: 72 h
[9] = test system: Vero E6; experiment: as above; conditions: 72 h
[10] = test system: Calu-3; experiment: as above; conditions: 72 h
[11] = test system: HepG2; experiment: as above; conditions: 72 h
[12] = test system: A549-ACE2 infected with SARS-CoV-2; experiment: cell count relative to DMSO; higher = less toxic; conditions: 24 h
[13] = test system: A549-ACE2 infected with SARS-CoV-2; experiment: morphology score (similarity to uninfected cells); higher = more like uninfected cells; conditions: 24 h
[14] = test system: A549-ACE2; experiment: drug-induced phospholipidosis relative to tamoxifen; higher = more phospholipidosis
[15] = test system: Caco-2; experiment: drug sensitivity score (DSS) for viability; higher = more toxic; extreme values may be limits of the assay; conditions: 72 h
[16] = test system: U2OS; experiment: as above; conditions: 72 h
[17] = test system: Vero E6; experiment: as above; conditions: 72 h
[18] = test system: Calu-3; experiment: as above; conditions: 72 h
[19] = test system: HepG2; experiment: as above; conditions: 72 h

## O=C(CN1C2=NCCN2c2ccccc21)c1ccc(-c2ccccc2)cc1
[1]; 0.3 µM
  SARS-CoV-2 infection rate: 105%
[1]; 3 µM
  SARS-CoV-2 infection rate: 67%
[1]; 10 µM
  SARS-CoV-2 infection rate: 14%
[1]; 30 µM
  SARS-CoV-2 infection rate: 51%
[2]; 24 h
  phospholipidosis EC50: 5.39 µM
[2]; 48 h
  phospholipidosis EC50: 7.27 µM
[2]; 72 h
  phospholipidosis EC50: 8.25 µM
[3]
  relative viability EC50: > 10 µM
[4]
  relative viability EC50: > 10 µM
[5]
  relative viability EC50: > 10 µM
[6]
  relative viability EC50: > 10 µM
[7]; 1 nM
  cell viability: 99.6%
[7]; 10 nM
  cell viability: 102%
[7]; 100 nM
  cell viability: 110%
[7]; 1000 nM
  cell viability: 102%
[7]; 10000 nM
  cell viability: 88.8%
[8]; 1 nM
  cell viability: 108%
[8]; 10 nM
  cell viability: 104%
[8]; 100 nM
  cell viability: 99.1%
[8]; 1000 nM
  cell viability: 99.3%
[8]; 10000 nM
  cell viability: 90.6%
[9]; 1 nM
  cell viability: 103%
[9]; 10 nM
  cell viability: 99.5%
[9]; 100 nM
  cell viability: 98.8%
[9]; 1000 nM
  cell viability: 95.4%
[9]; 10000 nM
  cell viability: 83.4%
[10]; 1 nM
  cell viability: 94.5%
[10]; 10 nM
  cell viability: 99.2%
[10]; 100 nM
  cell viability: 92.9%
[10]; 1000 nM
  cell viability: 100%
[10]; 10000 nM
  cell viability: 82.2%
[11]; 1 nM
  cell viability: 98.7%
[11]; 10 nM
  cell viability: 97.4%
[11]; 100 nM
  cell viability: 95.1%
[11]; 1000 nM
  cell viability: 98.4%
[11]; 10000 nM
  cell viability: 74.1%
[12]; 0.3 µM
  cell count: 101%
[12]; 3 µM
  cell count: 114%
[12]; 10 µM
  cell count: 118%
[12]; 30 µM
  cell count: 106%
[13]; 0.3 µM
  morphology score: -0.08
[13]; 3 µM
  morphology score: 0.58
[13]; 10 µM
  morphology score: 0.78
[13]; 30 µM
  morphology score: -0.05
[14]; 0.3 µM, 24 h
  drug-induced phospholipidosis: 2.47%
[14]; 0.3 µM, 48 h
  drug-induced phospholipidosis: 4.83%
[14]; 0.3 µM, 72 h
  drug-induced phospholipidosis: 2.9%
[14]; 0.833333 µM, 24 h
  drug-induced phospholipidosis: 0.7%
[14]; 0.833333 µM, 48 h
  drug-induced phospholipidosis: 1.26%
[14]; 0.833333 µM, 72 h
  drug-induced phospholipidosis: -4.28%
[14]; 3.33333 µM, 24 h
  drug-induced phospholipidosis: 26.4%
[14]; 3.33333 µM, 48 h
  drug-induced phospholipidosis: 21.7%
[14]; 3.33333 µM, 72 h
  drug-induced phospholipidosis: 15%
[14]; 6.66667 µM, 24 h
  drug-induced phospholipidosis: 46.9%
[14]; 6.66667 µM, 48 h
  drug-induced phospholipidosis: 49.5%
[14]; 6.66667 µM, 72 h
  drug-induced phospholipidosis: 36.6%
[14]; 10 µM, 24 h
  drug-induced phospholipidosis: 91.5%
[14]; 10 µM, 48 h
  drug-induced phospholipidosis: 106%
[14]; 10 µM, 72 h
  drug-induced phospholipidosis: 99.6%
[14]; 30 µM, 24 h
  drug-induced phospholipidosis: 84%
[14]; 30 µM, 48 h
  drug-induced phospholipidosis: 117%
[15]
  drug sensitivity score: 0
[16]
  drug sensitivity score: 0
[17]
  drug sensitivity score: 0.8
[18]
  drug sensitivity score: 0.4
[19]
  drug sensitivity score: 1.2

## COc1ccc(/C=C/C(=O)/C=C(O)/C=C/c2ccc(OC)c(OC)c2)cc1OC [ASC-J9]
[1]; 0.3 µM
  SARS-CoV-2 infection rate: 98%
[1]; 3 µM
  SARS-CoV-2 infection rate: 97%
[1]; 10 µM
  SARS-CoV-2 infection rate: 87%
[1]; 30 µM
  SARS-CoV-2 infection rate: 25%
[2]; 24 h
  phospholipidosis EC50: 20 µM
[3]
  relative viability EC50: 3.19 µM
[4]
  relative viability EC50: 2.98 µM
[5]
  relative viability EC50: > 10 µM
[6]
  relative viability EC50: > 10 µM
[7]; 1 nM
  cell viability: 90.7%
[7]; 10 nM
  cell viability: 92.8%
[7]; 100 nM
  cell viability: 92.9%
[7]; 1000 nM
  cell viability: 100%
[7]; 10000 nM
  cell viability: 45.2%
[8]; 1 nM
  cell viability: 96.1%
[8]; 10 nM
  cell viability: 97.5%
[8]; 100 nM
  cell viability: 95.3%
[8]; 1000 nM
  cell viability: 98.1%
[8]; 10000 nM
  cell viability: 26.5%
[9]; 1 nM
  cell viability: 99.2%
[9]; 10 nM
  cell viability: 93.9%
[9]; 100 nM
  cell viability: 103%
[9]; 1000 nM
  cell viability: 101%
[9]; 10000 nM
  cell viability: 103%
[10]; 1 nM
  cell viability: 96.5%
[10]; 10 nM
  cell viability: 94.9%
[10]; 100 nM
  cell viability: 110%
[10]; 1000 nM
  cell viability: 108%
[10]; 10000 nM
  cell viability: 81.9%
[11]; 1 nM
  cell viability: 118%
[11]; 10 nM
  cell viability: 106%
[11]; 100 nM
  cell viability: 111%
[11]; 1000 nM
  cell viability: 95.4%
[11]; 10000 nM
  cell viability: 55.8%
[12]; 0.3 µM
  cell count: 100%
[12]; 3 µM
  cell count: 101%
[12]; 10 µM
  cell count: 98%
[12]; 30 µM
  cell count: 70%
[13]; 0.3 µM
  morphology score: 0.01
[13]; 3 µM
  morphology score: -0.06
[13]; 10 µM
  morphology score: 0.39
[13]; 30 µM
  morphology score: 0.56
[14]; 0.3 µM, 24 h
  drug-induced phospholipidosis: 0.46%
[14]; 0.3 µM, 48 h
  drug-induced phospholipidosis: 1.84%
[14]; 0.3 µM, 72 h
  drug-induced phospholipidosis: 4.19%
[14]; 0.833333 µM, 24 h
  drug-induced phospholipidosis: -1.23%
[14]; 0.833333 µM, 48 h
  drug-induced phospholipidosis: -1.1%
[14]; 0.833333 µM, 72 h
  drug-induced phospholipidosis: -0.9%
[14]; 3.33333 µM, 24 h
  drug-induced phospholipidosis: 4.99%
[14]; 3.33333 µM, 48 h
  drug-induced phospholipidosis: 1.58%
[14]; 3.33333 µM, 72 h
  drug-induced phospholipidosis: 1.28%
[14]; 6.66667 µM, 24 h
  drug-induced phospholipidosis: 24.2%
[14]; 6.66667 µM, 48 h
  drug-induced phospholipidosis: 8.23%
[14]; 6.66667 µM, 72 h
  drug-induced phospholipidosis: 7.61%
[14]; 10 µM, 24 h
  drug-induced phospholipidosis: 40.1%
[14]; 10 µM, 48 h
  drug-induced phospholipidosis: 13.3%
[14]; 10 µM, 72 h
  drug-induced phospholipidosis: 9.79%
[14]; 30 µM, 24 h
  drug-induced phospholipidosis: 139%
[14]; 30 µM, 48 h
  drug-induced phospholipidosis: 45.5%
[14]; 30 µM, 72 h
  drug-induced phospholipidosis: 37.4%
[15]
  drug sensitivity score: 2.9
[16]
  drug sensitivity score: 4.3
[17]
  drug sensitivity score: 0
[18]
  drug sensitivity score: 0.3
[19]
  drug sensitivity score: 3

## Clc1ccccc1CNC[C@H]1CC[C@H](CNCc2ccccc2Cl)CC1 [AY-9944]
[1]; 0.3 µM
  SARS-CoV-2 infection rate: 86%
[1]; 3 µM
  SARS-CoV-2 infection rate: 39%
[1]; 10 µM
  SARS-CoV-2 infection rate: 17%
[1]; 30 µM
  SARS-CoV-2 infection rate: 34%
[2]; 24 h
  phospholipidosis EC50: 5.85 µM
[2]; 48 h
  phospholipidosis EC50: 5.4 µM
[2]; 72 h
  phospholipidosis EC50: 4.53 µM
[3]
  relative viability EC50: > 10 µM
[4]
  relative viability EC50: > 10 µM
[5]
  relative viability EC50: > 10 µM
[6]
  relative viability EC50: 3.6 µM
[7]; 1 nM
  cell viability: 99.5%
[7]; 10 nM
  cell viability: 108%
[7]; 100 nM
  cell viability: 99.7%
[7]; 1000 nM
  cell viability: 95.1%
[7]; 10000 nM
  cell viability: 83.7%
[8]; 1 nM
  cell viability: 97.4%
[8]; 10 nM
  cell viability: 102%
[8]; 100 nM
  cell viability: 103%
[8]; 1000 nM
  cell viability: 107%
[8]; 10000 nM
  cell viability: 92.8%
[9]; 1 nM
  cell viability: 102%
[9]; 10 nM
  cell viability: 104%
[9]; 100 nM
  cell viability: 105%
[9]; 1000 nM
  cell viability: 94.5%
[9]; 10000 nM
  cell viability: 90%
[10]; 1 nM
  cell viability: 97.7%
[10]; 10 nM
  cell viability: 104%
[10]; 100 nM
  cell viability: 106%
[10]; 1000 nM
  cell viability: 108%
[10]; 10000 nM
  cell viability: 7.3%
[11]; 1 nM
  cell viability: 104%
[11]; 10 nM
  cell viability: 96%
[11]; 100 nM
  cell viability: 110%
[11]; 1000 nM
  cell viability: 98.1%
[11]; 10000 nM
  cell viability: 59.2%
[12]; 0.3 µM
  cell count: 104%
[12]; 3 µM
  cell count: 123%
[12]; 10 µM
  cell count: 126%
[12]; 30 µM
  cell count: 113%
[13]; 0.3 µM
  morphology score: 0.42
[13]; 3 µM
  morphology score: 0.76
[13]; 10 µM
  morphology score: 0.56
[13]; 30 µM
  morphology score: 0.08
[14]; 0.3 µM, 24 h
  drug-induced phospholipidosis: 20.6%
[14]; 0.3 µM, 48 h
  drug-induced phospholipidosis: 14.1%
[14]; 0.3 µM, 72 h
  drug-induced phospholipidosis: 17.5%
[14]; 0.833333 µM, 24 h
  drug-induced phospholipidosis: 37.8%
[14]; 0.833333 µM, 48 h
  drug-induced phospholipidosis: 38.1%
[14]; 0.833333 µM, 72 h
  drug-induced phospholipidosis: 29.9%
[14]; 3.33333 µM, 24 h
  drug-induced phospholipidosis: 77.7%
[14]; 3.33333 µM, 48 h
  drug-induced phospholipidosis: 78.4%
[14]; 3.33333 µM, 72 h
  drug-induced phospholipidosis: 79.3%
[14]; 6.66667 µM, 24 h
  drug-induced phospholipidosis: 88.2%
[14]; 6.66667 µM, 48 h
  drug-induced phospholipidosis: 112%
[14]; 6.66667 µM, 72 h
  drug-induced phospholipidosis: 115%
[14]; 10 µM, 24 h
  drug-induced phospholipidosis: 96.4%
[14]; 10 µM, 48 h
  drug-induced phospholipidosis: 116%
[14]; 10 µM, 72 h
  drug-induced phospholipidosis: 128%
[14]; 30 µM, 24 h
  drug-induced phospholipidosis: 121%
[14]; 30 µM, 48 h
  drug-induced phospholipidosis: 148%
[14]; 30 µM, 72 h
  drug-induced phospholipidosis: 157%
[15]
  drug sensitivity score: 0.8
[16]
  drug sensitivity score: 0
[17]
  drug sensitivity score: 0
[18]
  drug sensitivity score: 4.6
[19]
  drug sensitivity score: 2.3
